Reference: patent US12697340B2, “Compositions and methods for cellular ageing, stress resilience, autophagy, inflammation and longevity” (JUVN3 Holdings, LLC, priority 2018, dated 2026)

Legend:
Format in all cases: cell-based
[1] = system: LC3II/I ratio in C2C12 cells; experiment: Autophagy flux (LC3II/I ratio), C2C12 cells; conditions: 24 hours with 400 uM H2O2, FIG. 6A
Protocol: (§1) Treatments and cells. 6-hour and 24-hour cell culture treatments were with one of the following compounds: 1. Control or “vehicle” (DMSO+phosphate-buffered saline only); 2. Niagen (5 μg/mL); 3. BHB (beta hydroxybutyrate) (30 ug/mL); 4. CBD (cannabidiol) (5 ug/mL); 5. Olive leaf (5 ug/mL); 6. Dynamine (1 ug/mL); 7. Selenium (2 ug/mL); 8. Tributyrin (5 ug/mL)
(§2) Treatment materials and methods. C2C12 cells were treated with compounds 1-8 as listed above for 6 hours without hydrogen peroxide (H2O2) (termed “unperturbed cells” throughout); or cells were treated with compounds 1-8 above for 24 hours with a concomitant 400 uM hydrogen peroxide (H2O2).
Autophagy flux (or activity) was assessed by assaying the LC3II/I ratio. This assay has been deemed the “gold standard” in autophagy monitoring (see e.g., Autophagy, 2007 Nov.-Dec.; 3(6):542-5).
(§3) Western blot analysis was performed using antibodies that detected p-H2AX protein, LC3I, LC3II, 4HNE, and NLRP3 proteins in both the C2C12 and EOMA cells. Ponceau stain was used for protein staining.

4HNE in C2C12 cells = experiment: Oxidative stress (4HNE assay), C2C12 cells; conditions: C2C12 cells co-incubated with H2O2, FIG. 6C
Protocol: as §1, §2
Oxidative stress was assessed using the 4HNE assay which is a product of cellular lipid oxidation (see e.g., Am J Physiol Cell Physiol. 2016 Oct. 1; 311(4): C537-0543).
as §3

C2C12 cells = experiment: Total antioxidant capacity (TEAC assay), C2C12 cells with H2O2; conditions: C2C12 cells co-incubated with H2O2, FIG. 5B
Protocol: Treatments and cells. 6-hour and 24-hour cell culture treatments were with one of the following compounds: 1. Control or “vehicle” (DMSO+phosphate-buffered saline only); 2. […] (5 μg/mL); 3. BHB (beta hydroxybutyrate) (30 ug/mL); 4. […] Olive leaf (5 ug/mL); 6. Dynamine (1 ug/mL); 7. […] Tributyrin (5 ug/mL) Treatment materials and methods. […] Total antioxidant capacity was assessed using a Trolox equivalent antioxidant capacity (TEAC) assay.

SMILES	autophagy (LC3II/I ratio) [1]	cellular oxidative stress (4HNE) (4HNE in C2C12 cells)	total antioxidant capacity (Trolox) (C2C12 cells)	total antioxidant capacity (Trolox) (C2C12 cells; listed as Selenium)	total antioxidant capacity (Trolox) (C2C12 cells; listed as Tributyrin)
CC(O)CC(=O)O (stereo not drawn) [BHB, beta hydroxybutyrate]	increased autophagy	decrease cellular oxidative stress	–	–	–
C=C(C)[C@@H]1CCC(C)=C[C@H]1c1c(O)cc(CCCCC)cc1O [CBD, cannabidiol]	increased autophagy	–	–	–	–
[Se] [selenium]	increased autophagy	–	increase (e.g., restore) total antioxidant activity	increase or restore antioxidant capacity	–
CCCC(=O)OCC(COC(=O)CCC)OC(=O)CCC [tributyrin]	–	–	increase (e.g., restore) total antioxidant activity	–	increase or restore antioxidant capacity
